Counter-ions that a name gives are not always drawn.
Key:
[1] = mouse
[2] = oral; presystemic glucuronide conjugation; cited from earlier work

| Compound | oral bioavailability (concluded from glucose reduction) ([1]; in vivo, po) | serum glucose ([1]; oral gavage, 10 mg/mL solution, 10 mL/kg dose) | absolute bioavailability [2] |
| --- | --- | --- | --- |
| OEG-terminated 1,2-dithiolane-conjugated insulin: insulin conjugated at lysine-29 of the beta-chain with NHS-ester of carboxyl-OEG-terminated thioctamide (x is 8) | orally bioavailable | reduction | – |
| O=C(c1ccc(OCCN2CCCCC2)cc1)c1c(-c2ccc(O)cc2)sc2cc(O)ccc12 [Raloxifene, [6-hydroxy-2-(4-hydroixyphenyl)benzo[b]thien-3-yl]-4-[2-(1-piperidinyl)ethoxy]phenyl]methanone hydrochloride] | – | – | about 2% |
